According to ChEMBL document CHEMBL1128608, “Syntheses and biological properties of novel aza-podophyllotoxin analogs prossessing pronounced antitumor activity” (Bioorg Med Chem Lett, 1995):
Converted amounts (≈) assume the structure as drawn.

System: L1210
Experiment: Tested for in vitro cytotoxicity against L1210 murine leukemia cells in mice
Assay type: functional, cell-based
Conditions: Mus musculus

In order of falling IC50:
1. COc1cc(C2c3cc4c(cc3N=C3COC(=O)N32)OCO4)cc(OC)c1OC (configuration not stated)  0.54 µg/mL (≈ 1.36 µM)
2. COc1cc([C@@H]2c3cc4c(cc3N[C@@H]3COC(=O)N23)OCO4)cc(OC)c1OC  0.42 µg/mL (≈ 1.05 µM)
3. COc1cc(OC)cc([C@@H]2c3cc4c(cc3N[C@H]3COC(=O)N23)OCO4)c1  0.16 µg/mL (≈ 0.432 µM)
4. COc1cc([C@@H]2c3cc4c(cc3N(N)[C@H]3COC(=O)N23)OCO4)cc(OC)c1OC  0.09 µg/mL (≈ 0.217 µM)
5. COc1cc(OC)cc([C@@H]2c3cc4c(cc3N[C@@H]3COC(=O)N23)OCCO4)c1  0.08 µg/mL (≈ 0.208 µM)
6. COc1cc([C@@H]2c3cc4c(cc3[C@H](O)[C@H]3COC(=O)[C@H]23)OCO4)cc(OC)c1OC [PODOFILOX]  0.0036 µg/mL (≈ 0.00869 µM)

System: Mus musculus
Experiment: Assayed for antitumor activity against P388 leukemia in mice at a dose of 250 mg/kg/injection; Toxic, T/C<85%
Assay type: toxicity, organism-based
Conditions: in vivo

Work on `COc1cc(OC)cc([C@@H]2c3cc4c(cc3N[C@@H]3COC(=O)N23)OCCO4)c1` yielded a T/C of under 85%.
With `COc1cc([C@@H]2c3cc4c(cc3N(N)[C@H]3COC(=O)N23)OCO4)cc(OC)c1OC` the T/C was under 85%.

System: Mus musculus
Experiment: Assayed for antitumor activity against P388 leukemia in mice at a dose of 25 mg/kg/injection
Assay type: functional
Conditions: not given

In order of falling T/C:
1. COc1cc([C@@H]2c3cc4c(cc3N[C@@H]3COC(=O)N23)OCO4)cc(OC)c1OC  161%
2. COc1cc(OC)cc([C@@H]2c3cc4c(cc3N[C@@H]3COC(=O)N23)OCCO4)c1  150%
3. COc1cc(OC)cc([C@@H]2c3cc4c(cc3N[C@H]3COC(=O)N23)OCO4)c1  139%
4. COc1cc([C@@H]2c3cc4c(cc3N(N)[C@H]3COC(=O)N23)OCO4)cc(OC)c1OC  114%
5. COc1cc([C@@H]2c3cc4c(cc3[C@H](O)[C@H]3COC(=O)[C@H]23)OCO4)cc(OC)c1OC [PODOFILOX]  111%
6. COc1cc(C2c3cc4c(cc3N=C3COC(=O)N32)OCO4)cc(OC)c1OC (configuration not stated)  109%

System: Mus musculus
Experiment: Assayed for antitumor activity against P388 leukemia in mice at a dose of 50 mg/kg/injection
Assay type: functional
Conditions: not given

In order of falling T/C:
1. COc1cc([C@@H]2c3cc4c(cc3N[C@@H]3COC(=O)N23)OCO4)cc(OC)c1OC  239%
2. COc1cc(OC)cc([C@@H]2c3cc4c(cc3N[C@@H]3COC(=O)N23)OCCO4)c1  172%
3. COc1cc(OC)cc([C@@H]2c3cc4c(cc3N[C@H]3COC(=O)N23)OCO4)c1  156%
4. COc1cc([C@@H]2c3cc4c(cc3N(N)[C@H]3COC(=O)N23)OCO4)cc(OC)c1OC  134%
5. COc1cc(C2c3cc4c(cc3N=C3COC(=O)N32)OCO4)cc(OC)c1OC (configuration not stated)  111%

System: Mus musculus
Experiment: Assayed for antitumor activity against P388 leukemia in mice at a dose of 50 mg/kg/injection; Toxic, T/C<85%
Assay type: toxicity, organism-based
Conditions: in vivo

In the case of `COc1cc([C@@H]2c3cc4c(cc3[C@H](O)[C@H]3COC(=O)[C@H]23)OCO4)cc(OC)c1OC` [PODOFILOX], the T/C is reported as under 85%.

System: Mus musculus
Experiment: Assayed for antitumor activity against P388 leukemia in mice at a dose of 5 mg/kg/injection
Assay type: functional
Conditions: not given

In order of rising T/C:
1. COc1cc([C@@H]2c3cc4c(cc3N(N)[C@H]3COC(=O)N23)OCO4)cc(OC)c1OC  104%
2. COc1cc(C2c3cc4c(cc3N=C3COC(=O)N32)OCO4)cc(OC)c1OC (configuration not stated)  104%
3. COc1cc([C@@H]2c3cc4c(cc3N[C@@H]3COC(=O)N23)OCO4)cc(OC)c1OC  117%
4. COc1cc(OC)cc([C@@H]2c3cc4c(cc3N[C@@H]3COC(=O)N23)OCCO4)c1  117%

System: Mus musculus
Experiment: Assayed for antitumor activity against P388 leukemia in mice at a dose of 100 mg/kg/injection
Assay type: functional
Conditions: not given

In order of rising T/C:
1. COc1cc(OC)cc([C@@H]2c3cc4c(cc3N[C@@H]3COC(=O)N23)OCCO4)c1  94%
2. COc1cc(C2c3cc4c(cc3N=C3COC(=O)N32)OCO4)cc(OC)c1OC (configuration not stated)  109%
3. COc1cc([C@@H]2c3cc4c(cc3N(N)[C@H]3COC(=O)N23)OCO4)cc(OC)c1OC  153%
4. COc1cc(OC)cc([C@@H]2c3cc4c(cc3N[C@H]3COC(=O)N23)OCO4)c1  206%

System: Mus musculus
Experiment: Assayed for antitumor activity against P388 leukemia in mice at a dose of 10 mg/kg/injection
Assay type: functional
Conditions: not given

In order of rising T/C:
1. COc1cc([C@@H]2c3cc4c(cc3N(N)[C@H]3COC(=O)N23)OCO4)cc(OC)c1OC  109%
2. COc1cc(C2c3cc4c(cc3N=C3COC(=O)N32)OCO4)cc(OC)c1OC (configuration not stated)  109%
3. COc1cc([C@@H]2c3cc4c(cc3[C@H](O)[C@H]3COC(=O)[C@H]23)OCO4)cc(OC)c1OC [PODOFILOX]  109%
4. COc1cc(OC)cc([C@@H]2c3cc4c(cc3N[C@H]3COC(=O)N23)OCO4)c1  110%
5. COc1cc(OC)cc([C@@H]2c3cc4c(cc3N[C@@H]3COC(=O)N23)OCCO4)c1  133%
6. COc1cc([C@@H]2c3cc4c(cc3N[C@@H]3COC(=O)N23)OCO4)cc(OC)c1OC  144%

System: Mus musculus
Experiment: Assayed for antitumor activity against P388 leukemia in mice at a dose of 2.5 mg/kg/injection
Assay type: functional
Conditions: not given

In the case of `COc1cc([C@@H]2c3cc4c(cc3[C@H](O)[C@H]3COC(=O)[C@H]23)OCO4)cc(OC)c1OC` [PODOFILOX], the T/C is reported as 111%.

System: Mus musculus
Experiment: Assayed for antitumor activity against P388 leukemia in mice at a dose of 250 mg/kg/injection
Assay type: functional
Conditions: not given

In order of falling T/C:
1. COc1cc(OC)cc([C@@H]2c3cc4c(cc3N[C@H]3COC(=O)N23)OCO4)c1  206%
2. COc1cc(C2c3cc4c(cc3N=C3COC(=O)N32)OCO4)cc(OC)c1OC (configuration not stated)  144%

System: Mus musculus
Experiment: Tested for antitumor activity against B16 melanoma in mice at a dose of 25 mg/kg given intraperitoneally
Assay type: functional
Conditions: route intraperitoneal

Work on `COc1cc([C@@H]2c3cc4c(cc3[C@H](O)[C@H]3COC(=O)[C@H]23)OCO4)cc(OC)c1OC` [PODOFILOX] yielded a T/C of 110%.

System: Mus musculus
Experiment: Tested for antitumor activity against B16 melanoma in mice, at a dose of 25 mg/kg given intraperitoneally
Assay type: functional
Conditions: route intraperitoneal

With `COc1cc([C@@H]2c3cc4c(cc3N[C@@H]3COC(=O)N23)OCO4)cc(OC)c1OC` the T/C was 163%.

System: Mus musculus
Experiment: Tested for antitumor activity against B16 melanoma in mice, at a dose of 50 mg/kg given intraperitoneally
Assay type: functional
Conditions: route intraperitoneal

For `COc1cc([C@@H]2c3cc4c(cc3N[C@@H]3COC(=O)N23)OCO4)cc(OC)c1OC`, the T/C was 190%.

System: Mus musculus
Experiment: Tested for antitumor activity against vincristine-resistant P388 leukemia (P388/VCR) in mice at a dose 1 mg/kg, given intraperitoneally
Assay type: functional
Conditions: route intraperitoneal

`COc1cc([C@@H]2c3cc4c(cc3[C@H](O)[C@H]3COC(=O)[C@H]23)OCO4)cc(OC)c1OC` [PODOFILOX] showed a T/C of 122%.

System: Mus musculus
Experiment: Tested for antitumor activity against vincristine-resistant P388 leukemia (P388/VCR) in mice at a dose 2.5 mg/kg, given intraperitoneally
Assay type: functional
Conditions: route intraperitoneal

`COc1cc([C@@H]2c3cc4c(cc3[C@H](O)[C@H]3COC(=O)[C@H]23)OCO4)cc(OC)c1OC` [PODOFILOX] gave a T/C of 125%.

System: Mus musculus
Experiment: Tested for antitumor activity against vincristine-resistant P388 leukemia (P388/VCR) in mice at a dose 5 mg/kg, given intraperitoneally; Toxic, T/C<85%
Assay type: toxicity, organism-based
Parameters: dose 5 mg/kg, route intraperitoneal
Conditions: in vivo, ip

For `COc1cc([C@@H]2c3cc4c(cc3[C@H](O)[C@H]3COC(=O)[C@H]23)OCO4)cc(OC)c1OC` [PODOFILOX], the T/C was under 85%.

System: Mus musculus
Experiment: Tested for antitumor activity against vincristine-resistant P388 leukemia (P388/VCR) in mice, at a dose of 10 mg/kg given intraperitoneally; Toxic, T/C<85%
Assay type: toxicity, organism-based
Parameters: dose 10 mg/kg, route intraperitoneal
Conditions: in vivo, ip

For `COc1cc([C@@H]2c3cc4c(cc3N[C@@H]3COC(=O)N23)OCO4)cc(OC)c1OC`, the T/C was under 85%.

System: Mus musculus
Experiment: Tested for antitumor activity against vincristine-resistant P388 leukemia (P388/VCR) in mice, at a dose of 5 mg/kg given intraperitoneally
Assay type: functional
Conditions: route intraperitoneal

`COc1cc([C@@H]2c3cc4c(cc3N[C@@H]3COC(=O)N23)OCO4)cc(OC)c1OC` showed a T/C of 137%.

System: not listed separately
Experiment: Evaluated for the inhibition of microtubule assembly prepared from bovine brain
Assay type: functional, Bos taurus
Conditions: not given

In order of falling IC50:
1. COc1cc([C@@H]2c3cc4c(cc3N[C@@H]3COC(=O)N23)OCO4)cc(OC)c1OC  1.7 µg/mL (≈ 4.25 µM)
2. COc1cc([C@@H]2c3cc4c(cc3[C@H](O)[C@H]3COC(=O)[C@H]23)OCO4)cc(OC)c1OC [PODOFILOX]  0.13 µg/mL (≈ 0.314 µM)
